This note sets out measurements from US12441733B2, “Substituted 2,4-dioxotetrahydropyrimidines as intermediates in the synthesis of bruton's tyrosine kinase inhibitors” (Novartis AG, priority 2018, dated 2025).

The experiment relates to OCI-LY3 cells. Nature of the experiment: Resazurin cell viability (proliferation) assay in OCI-LY3 DLBCL cells. It counts as cell-based. To be noted: Homo sapiens, OCI-LY3 cells (BTK independent), 72 h, 50% growth inhibition vs vehicle, read-out: OCI-LY3 Prol GI50. The procedure, abridged: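 Cells were seeded at 1×10^4 per well and dosed 3 h later: 8-point 1:4 dilutions from 10 μM (OCI-LY3), in triplicate, 72 h at 37 °C. Resazurin (13 μg/ml final) was added for the last 2 h and fluorescence read at 530/600 nm. GI50 is relative to DMSO vehicle, typically from ≥2 independent experiments.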
A general note: Alamar Blue is a resazurin reagent that responds to reducing activity.

The structures appear in SMILES notation.

Consider `CCOc1ccc(C(=O)N2CCC3(CCN(Cc4ccc(-c5cc6c(-c7cc(F)cc(NC(=O)c8ccc(C(C)(C)O)cc8F)c7C)ncnc6[nH]5)cc4)CC3)CC2)cc1N1CCC(=O)NC1=O` [Compound 4, N-(3-(6-(4-((9-(3-(2,4-Dioxotetrahydropyrimidin-1(2H)-yl)-4-ethoxybenzoyl)-3,9-diazaspiro[5.5]undecan-3-yl)methyl)phenyl)-7H-pyrrolo[2,3-d]pyrimidin-4-yl)-5-fluoro-2-methylphenyl)-2-fluoro-4-(2-hydroxypropan-2-yl)benzamide], for which the GI50 (usually the concentration giving 50% growth inhibition) was 4.69 µM.

As for `Cc1ccc(C(=O)N2CCC3(CCN(CCc4ccc(-c5cc6c(-c7cc(F)cc(NC(=O)c8ccc(C(C)(C)O)cc8F)c7C)ncnc6[nH]5)cc4)CC3)CC2)cc1N1CCC(=O)NC1=O` [Compound 5, N-(3-(6-(4-(2-(9-(3-(2,4-Dioxotetrahydropyrimidin-1(2H)-yl)-4-methylbenzoyl)-3,9-diazaspiro[5.5]undecan-3-yl)ethyl)phenyl)-7H-pyrrolo[2,3-d]pyrimidin-4-yl)-5-fluoro-2-methylphenyl)-2-fluoro-4-(2-hydroxypropan-2-yl)benzamide], the 50% growth inhibitory concentration (GI50) is 6.55 µM.

In the case of `Cc1c(NC(=O)c2ccc(C(C)(C)O)cc2F)cc(F)cc1-c1ncnc2[nH]c(-c3ccc(COC4CCN(CCC5CCN(C(=O)c6ccc(F)c(N7CCC(=O)NC7=O)c6)CC5)CC4)cc3)cc12` [Compound 6, N-(3-(6-(4-(((1-(2(1-(3-(2,4-dioxotetrahydropyrimidin-1(2H)-yl)-4-fluorobenzoyl)piperidin-4-yl)ethyl)piperidin-4-yl)oxyl)methyl)phenyl)-7H-pyrrolo[2,3-d]pyrimidin-4-yl)-5-fluoro-2-methylphenyl)-2-fluoro-4-(2-hydroxypropan-2-yl)benzamide], the GI50 stood at 3.43 µM.

`COc1ccc(C(=O)N2CCC(OC3CCN(Cc4ccc(-c5cc6c(-c7cc(F)cc(NC(=O)c8ccc(C(C)(C)O)cc8F)c7C)ncnc6[nH]5)cc4)CC3)CC2)cc1N1CCC(=O)NC1=O` [Compound 8, N-(3-(6-(4-((4-((1-(3-(2,4-dioxotetrahydropyrimidin-1(2H)-yl)-4-methoxybenzoyl)piperidin-4-yl)oxyl)piperidin-1-yl)methyl)phenyl)-7H-pyrrolo[2,3-d]pyrimidin-4-yl)-5-fluoro-2-methylphenyl)-2-fluoro-4-(2-hydroxypropan-2-yl)benzamide]: the 50% growth inhibitory concentration (GI50) was determined as 4.85 µM.

On to `COc1ccc(C(=O)N2CCC3(CCN(Cc4ccc(-c5cc6c(-c7cc(F)cc(NC(=O)c8ccc(C(C)(C)O)cc8F)c7C)ncnc6[nH]5)cc4)CC3)CC2)cc1N1CCC(=O)NC1=O` [Compound 9, N-(3-(6-(4-((9-(3-(2,4-Dioxotetrahydropyrimidin-1(2H)-yl)-4-methoxybenzoyl)-3,9-diazaspiro[5.5]undecan-3-yl)methyl)phenyl)-7H-pyrrolo[2.3-d]pyrimidin-4-yl)-5-fluoro-2-methylphenyl)-2-fluoro-4-(2-hydroxypropan-2-yl)benzamide], for which the GI50 turned out to be 3.87 µM.

As to `Cc1c(NC(=O)c2ccc(C(C)(C)O)cc2F)cc(F)cc1-c1ncnc2[nH]c(-c3ccc(CCN4CCC5(CC4)CCN(C(=O)c4cccc(N6CCC(=O)NC6=O)c4)CC5)cc3)cc12` [Compound 12, N-(3-(6-(4-(2-(9-(3-(2,4-Dioxotetrahydropyrimidin-1(2H)-yl)benzoyl)-3,9-diazaspiro[5,5]undecan-3-yl)ethyl)phenyl)-7H-pyrrolo[2,3-d]pyrimidin-4-yl)-5-fluoro-2-methylphenyl)-2-fluoro-4-(2-hydroxypropan-2-yl)benzamide], the GI50 was 3.83 µM.

In the case of `Cc1c(NC(=O)c2ccc(C(C)(C)O)cc2F)cc(F)cc1-c1ncnc2[nH]c(-c3ccc(CN4CCC5(CC4)CCN(C(=O)c4ccc(F)c(N6CCC(=O)NC6=O)c4)CC5)cc3)cc12` [Compound 14, N-(3-(6-(4-((9-(3-(2,4-Dioxotetrahydropyrimidin-1(2H)-yl)-4-fluorobenzoyl)-3,9-diazaspiro[5.5]undecan-3-yl)methyl)phenyl)-7H-pyrrolo[2.3-d]pyrimidin-4-yl)-5-fluoro-2-methylphenyl)-2-fluoro-4-(2-hydroxypropan-2-yl)benzamide], the GI50 amounted to 5.98 µM.

For `COc1ccc(C(=O)N2CCC(CN3CCC(Oc4ccc(-c5cc6c(-c7cc(F)cc(NC(=O)c8ccc(C(C)(C)O)cc8F)c7C)ncnc6[nH]5)cc4)CC3)CC2)cc1N1CCC(=O)NC1=O` [Compound 19, N-(3-(6-(4-((1-((1-(3-(2,4-Dioxotetrahydropyrimidin-1(2H)-yl)-4-methoxybenzoyl)piperidin-4-yl)methyl)piperidin-4-yl)oxyl)phenyl)-7H-pyrrolo[2,3-d]pyrimidin-4-yl)-5-fluoro-2-methylphenyl)-2-fluoro-4-(2-hydroxypropan-2-yl)benzamide], the GI50 stood at 4.46 µM.

In the case of `COc1ccc(C(=O)N2CCC3(CC2)CCN(C(C)(C)Cc2ccc(-c4cc5c(-c6cc(F)cc(NC(=O)c7ccc(C(C)(C)O)cc7F)c6C)ncnc5[nH]4)cc2)CC3)cc1N1CCC(=O)NC1=O` [Compound 20, N-(3-(6-(4-(2-(9-(3-(2,4-Dioxotetrahydropyrimidin-1(2H)-yl)-4-methoxybenzoyl)-3,9-diazaspiro[5.5]undecan-3-yl)-2-methylpropyl)phenyl)-7H-pyrrolo[2,3-d]pyrimidin-4-yl)-5-fluoro-2-methylphenyl)-2-fluoro-4-(2-hydroxypropan-2-yl)benzamide], the concentration for 50% growth inhibition (GI50) stood at 7.9 µM.

In the case of `COc1ccc(C(=O)N2CCN(C(=O)N3CCN(Cc4ccc(-c5cc6c(-c7cc(F)cc(NC(=O)c8ccc(C(C)(C)O)cc8F)c7C)ncnc6[nH]5)cc4)CC3)CC2)cc1N1CCC(=O)NC1=O` [Compound 22, N-(3-(6-(4-((4-(4-(3-(2,4-Dioxotetrahydropyrimidin-1(2H)-yl)-4-methoxybenzoyl)piperazine-1-carbonyl)piperazin-1-yl)methyl)phenyl)-7H-pyrrolo[2,3-d]pyrimidin-4-yl)-5-fluoro-2-methylphenyl)-2-fluoro-4-(2-hydroxypropan-2-yl)benzamide], the GI50 came out at 4.11 µM.

With `Cc1ccc(C(=O)N2CCC3(CCN(Cc4ccc(-c5cc6c(-c7cc(F)cc(NC(=O)c8ccc(C(C)(C)O)cc8F)c7C)ncnc6[nH]5)cc4)CC3)CC2)cc1N1CCC(=O)NC1=O` [Compound 27, N-(3-(6-(4-((9-(3-(2,4-Dioxotetrahydropyrimidin-1(2H)-yl)-4-methylbenzoyl)-3,9-diazaspiro[5.5]undecan-3-yl)methyl)phenyl)-7H-pyrrolo[2,3-d]pyrimidin-4-yl)-5-fluoro-2-methylphenyl)-2-fluoro-4-(2-hydroxypropan-2-yl)benzamide], the GI50 was determined as 4.08 µM.

In the case of `Cc1cc(F)c(C(=O)NCCCCCNCc2ccc(-c3cc4c(-c5cc(F)cc(NC(=O)c6ccc(C(C)(C)O)cc6F)c5C)ncnc4[nH]3)cc2)cc1N1CCC(=O)NC1=O` [Compound 29, 5-(2,4-Dioxotetrahydropyrimidin-1(2H)-yl)-2-fluoro-N—(S-((4-(4-(5-fluoro-3-(2-fluoro-4-(2-hydroxypropan-2-yl)benzamido)-2-methylphenyl)-7H-pyrrolo[2,3-d]pyrimidin-6-yl)benzyl)amino)pentyl)-4-methylbenzamide], the GI50 was determined as 8.62 µM.

On to `Cc1ccc(C(=O)N(C)CCCCCNCc2ccc(-c3cc4c(-c5cc(F)cc(NC(=O)c6ccc(C(C)(C)O)cc6F)c5C)ncnc4[nH]3)cc2)cc1N1CCC(=O)NC1=O` [Compound 30, 3-(2,4-Dioxotetrahydropyrimidin-1(2H)-yl)-N-(5-((4-(4-(5-fluoro-3-(2-fluoro-4-(2-hydroxypropan-2-yl)benzamido)-2-methylphenyl)-7H-pyrrolo[2,3-d]pyrimidin-6-yl)benzyl)amino)pentyl)-N,4-dimethylbenzamide], for which the GI50 is more than 10 µM.

As for `COc1ccc(C(=O)N2CCC3(CCN(CCc4ccc(-c5cc6c(-c7cc(F)cc(NC(=O)c8ccc(C(C)(C)O)cc8F)c7C)ncnc6[nH]5)cc4)CC3)CC2)cc1N1CCC(=O)NC1=O` [Compound 31, N-(3-(6-(4-(2-(9-(3-(2,4-Dioxotetrahydropyrimidin-1(2H)-yl)-4-methoxybenzoyl)-3,9-diazaspiro[5.5]undecan-3-yl)ethyl)phenyl)-7H-pyrrolo[2,3-d]pyrimidin-4-yl)-5-fluoro-2-methylphenyl)-2-fluoro-4-(2-hydroxypropan-2-yl)benzamide], the GI50 came out at 5.64 µM.

For `COc1ccc(C(=O)N2CCC(OC3CCN(CCc4ccc(-c5cc6c(-c7cc(F)cc(NC(=O)c8ccc(C(C)(C)O)cc8F)c7C)ncnc6[nH]5)cc4)CC3)CC2)cc1N1CCC(=O)NC1=O` [Compound 34, N-(3-(6-(4-(2-(4-((1-(3-(2,4-Dioxotetrahydropyrimidin-1(2H)-yl)-4-methoxybenzoyl)piperidin-4-yl)oxyl)piperidin-1-yl)ethyl)phenyl)-7H-pyrrolo[2,3-d]pyrimidin-4-yl)-5-fluoro-2-methylphenyl)-2-fluoro-4-(2-hydroxypropan-2-yl)benzamide], the GI50 is more than 10 µM.

For the compound `COc1ccc(C(=O)NCCN2CCOC3(CCN(Cc4ccc(-c5cc6c(-c7cc(F)cc(NC(=O)c8ccc(C(C)(C)O)cc8F)c7C)ncnc6[nH]5)cc4)CC3)C2)cc1N1CCC(=O)NC1=O` [Compound 39, N-(3-(6-(4-((4-(2-(3-(2,4-dioxotetrahydropyrimidin-1(2H)-yl)-4-methoxybenzamido)ethyl)-1-oxa-4,9-diazaspiro[5.5]undecan-9-yl)methyl)phenyl)-7H-pyrrolo[2,3-d]pyrimidin-4-yl)-5-fluoro-2-methylphenyl)-2-fluoro-4-(2-hydroxypropan-2-yl)benzamide], the GI50 came out at 7.16 µM.

For the compound `COc1ccc(C(=O)N2CCN(CCCCNCc3ccc(-c4cc5c(-c6cc(F)cc(NC(=O)c7ccc(C(C)(C)O)cc7F)c6C)ncnc5[nH]4)cc3)CC2)cc1N1CCC(=O)NC1=O` [Compound 40, N-(3-(6-(4-(((4-(4-(3-(2,4-dioxotetrahydropyrimidin-1(2H)-yl)-4-methoxybenzoyl)piperazin-1-yl)butyl)amino)methyl)phenyl)-7H-pyrrolo[2,3-d]pyrimidin-4-yl)-5-fluoro-2-methylphenyl)-2-fluoro-4-(2-hydroxypropan-2-yl)benzamide], the GI50 is more than 10 µM.
